In PubChem BioAssay AID328 (DTP/NCI, 2004):
Where “and” joins values, the source holds several entries; their conditions need not be identical. Equal entries are not always repeated. Toxic doses and inconclusive results are not listed.

System: BDF1 mice, P388 leukemia ip, median survival T/C
Test: NCI In Vivo Anticancer Drug Screen. Data for tumor model P388 Leukemia (intraperitoneal) in B6D2F1 (BDF1) mice
Details: endpoint: median survival time, higher = longer survival
Summary of the method: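 Survival ratio, drug arm over vehicle arm, in mice with a transplanted tumour.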

[1] = dose: 50.0 mg/kg/injection, schedule: Q01DX009 (ip), vehicle: saline with Tween-80
[2] = dose: 100.0 mg/kg/injection, schedule: Q01DX009 (ip), vehicle: saline with Tween-80
[3] = dose: 200.0 mg/kg/injection, schedule: Q01DX009 (ip), vehicle: saline with Tween-80
[4] = dose: 100.0 mg/kg/injection, schedule: Q01DX001 (ip), vehicle: saline with Tween-80
[5] = dose: 50.0 mg/kg/injection, schedule: Q01DX009 (ip), vehicle: saline

CS(=O)(=O)CC(O)(c1ccccc1)c1ccccn1 (centres undefined)
T/C [1]: 90 % of control
T/C [2]: 89 % of control
T/C [3]: 89 % of control

CCC(=O)O[C@H]1CC[C@H]2[C@@H]3[C@H](C)CC4=CC(=O)CC[C@]4(C)[C@H]3CC[C@]12C
T/C (dose: 100.0 mg/kg/injection, schedule: Q01DX009 (ip), vehicle: saline): 95 % of control
T/C (dose: 200.0 mg/kg/injection, schedule: Q01DX009 (ip), vehicle: saline): 100 % of control
T/C (dose: 400.0 mg/kg/injection, schedule: Q01DX009 (ip), vehicle: saline): 115 % of control

CC1(C)OC(C)(C)c2c1nnc(-c1ccccc1)[n+]2[O-]
T/C (dose: 50.0 mg/kg/injection, schedule: Q01DX005 (ip), vehicle: saline with Tween-80): 91 % of control
T/C (dose: 100.0 mg/kg/injection, schedule: Q01DX005 (ip), vehicle: saline with Tween-80): 98 % of control
T/C (dose: 200.0 mg/kg/injection, schedule: Q01DX005 (ip), vehicle: saline with Tween-80): 88 % of control

O=C(Nc1ccc(NC(=O)Nc2cccc(C3=NCCN3)c2)cc1)Nc1cccc(C2=NCCN2)c1
T/C (dose: 60.0 mg/kg/injection, schedule: Q01DX010 (ip), vehicle: saline): 165 % of control and 190 % of control
T/C (dose: 120.0 mg/kg/injection, schedule: Q01DX010 (ip), vehicle: saline): 160 % of control and 175 % of control
T/C (dose: 240.0 mg/kg/injection, schedule: Q01DX010 (ip), vehicle: saline): 175 % of control and 190 % of control
T/C (dose: 480.0 mg/kg/injection, schedule: Q01DX010 (ip), vehicle: saline): 250 % of control and 300 % of control

COCc1ccc([N+](=O)[O-])cc1
T/C (dose: 25.0 mg/kg/injection, schedule: Q01DX001 (ip), vehicle: saline with Tween-80): 101 % of control
T/C (dose: 50.0 mg/kg/injection, schedule: Q01DX001 (ip), vehicle: saline with Tween-80): 95 % of control
T/C [4]: 96 % of control and 107 % of control

CC1CCC2(C(=O)O)CCC3(C)C(=CCC4C5(C)CCC(O)C(C)(C)C5CCC43C)C2C1C (centres undefined)
T/C (dose: 100.0 mg/kg/injection, schedule: Q01DX010 (ip), vehicle: acetone): 120 % of control
T/C (dose: 200.0 mg/kg/injection, schedule: Q01DX010 (ip), vehicle: acetone): 115 % of control
T/C (dose: 400.0 mg/kg/injection, schedule: Q01DX010 (ip), vehicle: acetone): 120 % of control

CC(C)[CH2][Sn]([CH2]C(C)C)([CH2]C(C)C)[C](C)(C)C
T/C (dose: 100.0 mg/kg/injection, schedule: Q04DX003 (ip), vehicle: saline): 103 % of control
T/C (dose: 200.0 mg/kg/injection, schedule: Q04DX003 (ip), vehicle: saline): 112 % of control
T/C (dose: 400.0 mg/kg/injection, schedule: Q04DX003 (ip), vehicle: saline): 112 % of control

CCCCCC(C[N+]1(C)CCOCC1)C(=O)/C=C/c1ccccc1 (centres undefined)
T/C (dose: 12.5 mg/kg/injection, schedule: Q01DX009 (ip), vehicle: saline): 95 % of control
T/C (dose: 25.0 mg/kg/injection, schedule: Q01DX009 (ip), vehicle: saline): 120 % of control
T/C [5]: 124 % of control

C=C1CC2(CC(C)(C)CC(C)(C)C2)OC1=O
T/C (dose: 100.0 mg/kg/injection, schedule: Q04DX003 (ip), vehicle: saline with Tween-80): 97 % of control
T/C (dose: 200.0 mg/kg/injection, schedule: Q04DX003 (ip), vehicle: saline with Tween-80): 112 % of control
T/C (dose: 400.0 mg/kg/injection, schedule: Q04DX003 (ip), vehicle: saline with Tween-80): 106 % of control

CC(C)(C)c1ccc(S(=O)[O][Sn]([CH3])([CH3])[O]S(=O)c2ccc(C(C)(C)C)cc2)cc1 (centres undefined)
T/C (dose: 12.5 mg/kg/injection, schedule: Q01DX001 (ip), vehicle: Klucel (hydroxypropylcellulose) (HPC)): 110 % of control
T/C (dose: 25.0 mg/kg/injection, schedule: Q01DX001 (ip), vehicle: Klucel (hydroxypropylcellulose) (HPC)): 113 % of control
T/C (dose: 50.0 mg/kg/injection, schedule: Q01DX001 (ip), vehicle: Klucel (hydroxypropylcellulose) (HPC)): 116 % of control

OC(C1CO1)C(O)C1CO1 (centres undefined)
T/C (dose: 1.0 mg/kg/injection, schedule: Q01DX009 (ip), vehicle: saline): 282 % of control
T/C (dose: 2.0 mg/kg/injection, schedule: Q01DX009 (ip), vehicle: saline): 168 % of control
T/C (dose: 2.5 mg/kg/injection, schedule: Q01DX009 (ip), vehicle: saline): 190 % of control
T/C (dose: 5.0 mg/kg/injection, schedule: Q01DX009 (ip), vehicle: saline): 260 % of control
T/C (dose: 6.7 mg/kg/injection, schedule: Q01DX001 (ip), vehicle: saline): 189 % of control
T/C (dose: 6.7 mg/kg/injection, schedule: Q04DX003 (ip), vehicle: saline): 250 % of control
T/C (dose: 10.0 mg/kg/injection, schedule: Q01DX001 (ip), vehicle: saline): 336 % of control and 209 % of control and 219 % of control
T/C (dose: 10.0 mg/kg/injection, schedule: Q01DX009 (ip), vehicle: saline): 110 % of control
T/C (dose: 10.0 mg/kg/injection, schedule: Q04DX003 (ip), vehicle: saline): 413 % of control
T/C (dose: 12.5 mg/kg/injection, schedule: Q01DX001 (ip), vehicle: saline): 231 % of control and 292 % of control and 333 % of control
T/C (dose: 12.5 mg/kg/injection, schedule: Q04DX003 (ip), vehicle: saline): 387 % of control
T/C (dose: 15.0 mg/kg/injection, schedule: Q01DX001 (ip), vehicle: saline): 280 % of control and 292 % of control and 318 % of control

CC(/C(=N/N(C)C)c1ccccc1)C(C)/C(=N\N(C)C)c1ccccc1 (centres undefined)
T/C (dose: 100.0 mg/kg/injection, schedule: Q04DX002 (ip), vehicle: saline with Tween-80): 97 % of control
T/C (dose: 200.0 mg/kg/injection, schedule: Q04DX002 (ip), vehicle: saline with Tween-80): 110 % of control
T/C (dose: 400.0 mg/kg/injection, schedule: Q04DX002 (ip), vehicle: saline with Tween-80): 112 % of control

O/N=C(\C[n+]1ccccc1)c1ccc2ccccc2c1
T/C (dose: 1.56 mg/kg/injection, schedule: Q01DX009 (ip), vehicle: Klucel (hydroxypropylcellulose) (HPC)): 113 % of control
T/C (dose: 3.12 mg/kg/injection, schedule: Q01DX009 (ip), vehicle: Klucel (hydroxypropylcellulose) (HPC)): 120 % of control
T/C (dose: 3.12 mg/kg/injection, schedule: Q01DX009 (ip), vehicle: saline): 107 % of control
T/C (dose: 6.25 mg/kg/injection, schedule: Q01DX009 (ip), vehicle: Klucel (hydroxypropylcellulose) (HPC)): 122 % of control
T/C (dose: 6.25 mg/kg/injection, schedule: Q01DX009 (ip), vehicle: saline): 120 % of control
T/C [5]: 106 % of control

COC(=O)c1c(C)cc(OC(=O)c2c(C)c(Cl)c(O)c(Cl)c2O)cc1O
T/C (dose: 1.25 mg/kg/injection, schedule: Q01DX009 (ip), vehicle: Klucel (hydroxypropylcellulose) (HPC)): 91 % of control
T/C (dose: 2.5 mg/kg/injection, schedule: Q01DX009 (ip), vehicle: Klucel (hydroxypropylcellulose) (HPC)): 114 % of control
T/C (dose: 5.0 mg/kg/injection, schedule: Q01DX009 (ip), vehicle: Klucel (hydroxypropylcellulose) (HPC)): 101 % of control
T/C (dose: 10.0 mg/kg/injection, schedule: Q01DX009 (ip), vehicle: Klucel (hydroxypropylcellulose) (HPC)): 108 % of control
T/C (dose: 20.0 mg/kg/injection, schedule: Q01DX009 (ip), vehicle: Klucel (hydroxypropylcellulose) (HPC)): 97 % of control

CC(C(=O)O)=C(c1ccccc1)c1ccccc1
T/C [4]: 100 % of control
T/C (dose: 200.0 mg/kg/injection, schedule: Q01DX001 (ip), vehicle: saline with Tween-80): 100 % of control
T/C (dose: 400.0 mg/kg/injection, schedule: Q01DX001 (ip), vehicle: saline with Tween-80): 100 % of control

CN(C)c1ccc(C=O)c(Br)c1
T/C (dose: 12.5 mg/kg/injection, schedule: Q01DX009 (ip), vehicle: Klucel (hydroxypropylcellulose) (HPC)): 109 % of control
T/C (dose: 25.0 mg/kg/injection, schedule: Q01DX009 (ip), vehicle: Klucel (hydroxypropylcellulose) (HPC)): 90 % of control
T/C (dose: 50.0 mg/kg/injection, schedule: Q01DX009 (ip), vehicle: Klucel (hydroxypropylcellulose) (HPC)): 86 % of control
T/C (dose: 100.0 mg/kg/injection, schedule: Q04DX003 (ip), vehicle: Klucel (hydroxypropylcellulose) (HPC)): 90 % of control
T/C (dose: 400.0 mg/kg/injection, schedule: Q04DX003 (ip), vehicle: Klucel (hydroxypropylcellulose) (HPC)): 104 % of control

S=c1nc2[nH]c3ccccc3c2n[nH]1
T/C (dose: 6.25 mg/kg/injection, schedule: Q01DX009 (ip), vehicle: saline with Tween-80): 100 % of control
T/C (dose: 12.5 mg/kg/injection, schedule: Q01DX009 (ip), vehicle: saline with Tween-80): 97 % of control
T/C (dose: 25.0 mg/kg/injection, schedule: Q01DX009 (ip), vehicle: saline with Tween-80): 88 % of control
T/C [1]: 96 % of control
T/C [2]: 98 % of control
T/C [3]: 96 % of control

O=C1OC(c2ccccc2)=N/C1=C/c1cccs1
T/C (dose: 100.0 mg/kg/injection, schedule: Q01DX009 (ip), vehicle: Klucel (hydroxypropylcellulose) (HPC)): 96 % of control
T/C (dose: 200.0 mg/kg/injection, schedule: Q01DX009 (ip), vehicle: Klucel (hydroxypropylcellulose) (HPC)): 88 % of control
T/C (dose: 400.0 mg/kg/injection, schedule: Q01DX009 (ip), vehicle: Klucel (hydroxypropylcellulose) (HPC)): 92 % of control
